Experimental data from EP0182609A2, “Polycyclic biocidal compounds, their synthesis, formulations containing them” (THE WELLCOME FOUNDATION LIMITED, priority 1984, dated 1986).
Read-outs that look alike come from different tables or passages of the source.

Key:
[1] = LD20 determined in the P388/0 test; type: in vivo
Procedure: (§1) CD2-F1 mice, of the same sex, weighing 20t3g are used for this test. Control and test animals are injected intraperitoneally with a suspension of -10^6 viable P388/0 tumor cells on day 0. In each test several dose levels which bracket the LD20 for the compound are evaluated; each dose level group contains 6 animals. The test compounds are prepared either in physiologic saline containing 0.05% Tween 80 or distilled water containing 5% dextrose and are administered intraperitoneally on days 1, 5, and 9 relative to tumor implant. Doses are on a mg/kg basis according to individual animals' body weights. The day of death for each animal is recorded, the median identified for each group and the ratios of median survival time for treated (T)/control (C) groups are calculated. The criterion for activity is T/C x 100 >120%.

P388/0 tumor cells = test: Lymphocytic Leukemia P388/0 Test; type: in vivo, CD2-F1 mice; settings: for Optimal Dose: intraperitoneally on days 1, 5, and 9 relative to tumor implant; for T/C x 100% (Excluding 30 Day survivors): median survival time treated/control at optimal dose, i.p. days 1, 5, and 9, criterion for activity >120%
Source text: Methods for evaluating the antitumour activity of these compounds are essentially those used in the Tumor Panel by the Developmental Therapeutics Program, Division of Cancer Treatment, National Cancer institute, A. Goldin, et al., Methods in Cancer Research, Vol. XVI, p. 165, Academic Press (1979). Some modifications, in dose level and schedule have been made to increase the testing efficiency.
as §1

Saccharomyces cerevisiae = test: In vitro antifungal activity, minimum fungistatic concentration; type: cell-based; settings: read-out: Minimum Fungistatic Concentration
Procedure: The minimum fungistatic concentrations of compounds of the formula (I) against various fungi were obtained using standard techniques. The tests were carried out in either medium A or medium B (see below) and the standard used in each instance was Miconazole nitrate.

[2] = intraperitoneally on days 1, 5, and 9, tumor-bearing mice

With `CC(CO)(CO)NCc1c2ccccc2cc2c1ccc1ccccc12` [Example 1, 2-((7-Benz[a]anthracenylmethyl)amino)-2-methyl-1,3-propanediol methanesulfonate] the LD20 [1, 2] was 180 mg/kg, the “Optimal Dose” value (P388/0 tumor cells) was 220 mg/kg and the “T/C x 100% (Excluding 30 Day survivors)” value (P388/0 tumor cells) was “+270%”.

In the case of `CC(CO)(CO)NCc1c2ccccc2c2ccc3cccc4ccc1c2c43` [Example 2, 2-[(Benzo[a]pyren-6-ylmethyl)amino]-2-methyl-1,3-propanediol methanesulfonate], the LD20 [1, 2] is reported as 100 mg/kg, the “Optimal Dose” value (P388/0 tumor cells) is reported as 111 mg/kg and the “T/C x 100% (Excluding 30 Day survivors)” value (P388/0 tumor cells) is reported as “+204%”.

In the case of `CC(CO)(CO)NCc1c2ccccc2cc2cc3ccccc3cc12` [Example 3C, 2-[(5-naphthacenylmethyl)amino]-2-methyl-1,3-propanediol methanesulfonate], the LD20 ([1]; mouse, in vivo, ip) is reported as 50 mg/kg, the “Optimal Dose” value (P388/0 tumor cells) is reported as 60 mg/kg and the “T/C x 100% (Excluding 30 Day survivors)” value (P388/0 tumor cells) is reported as “+195%”.

With `CC(CO)(CO)NCc1c2c(cc3ccccc13)Cc1ccccc1-2` [Example 4B, 2-[(11H-Benzo[b]fluoren-5-ylmethyl)amino]-2-methyl-1,3-propanediol methanesulfonate] the LD20 ([1]; mouse, in vivo, ip) was 300 mg/kg, the “Optimal Dose” value (P388/0 tumor cells) was 225 mg/kg and the “T/C x 100% (Excluding 30 Day survivors)” value (P388/0 tumor cells) was “+280%”.

For `CC(CO)(CO)NCc1cc2ccc3ccccc3c2c2ccccc12` [Example 5B, 2[(Benzo[c]phenanthren-5-ylmethyl)amino]-2-methyl-1,3-propanediol methanesulfonate], the LD20 [1, 2] was 10 mg/kg, the “Optimal Dose” value (P388/0 tumor cells) was 15 mg/kg and the “T/C x 100% (Excluding 30 Day survivors)” value (P388/0 tumor cells) was “+140%”. For the same molecule, the MIC (Saccharomyces cerevisiae) was at most 0.4 µg/mL.

With `CC(CO)(CO)NCc1c2ccccc2c(Cl)c2cc3ccccc3cc12` [Example 6B, 2-[(12-Chloro-5-naphthacenylmethyl)amino]-2-methyl-1,3-propanediol methanesulfonate] the LD20 ([1]; mouse, in vivo, ip) was 70 mg/kg, the “Optimal Dose” value (P388/0 tumor cells) was 75 mg/kg and the “T/C x 100% (Excluding 30 Day survivors)” value (P388/0 tumor cells) was “+150%”.

In the case of `CC(CO)(CO)NCc1c2ccccc2c(Cl)c2cc3ccccc3cc12.Cl` [Example 6C, 2-[(12-chloro-5-naphthacenylmethyl)amino]-2-methyl-1,3-propanediol hydrochloride], the LD20 [1, 2] is reported as 70 mg/kg, the “Optimal Dose” value (P388/0 tumor cells) is reported as 40 mg/kg and the “T/C x 100% (Excluding 30 Day survivors)” value (P388/0 tumor cells) is reported as “+150%”.

For `Clc1ccc(COC(Cn2ccnc2)c2ccc(Cl)cc2Cl)c(Cl)c1` (centres unmarked) [Miconazole Nitrate, Miconazole nitrate, reference compound], the MIC (Saccharomyces cerevisiae; medium A or medium B) was at most 0.4 µg/mL.
